Source: patent US10640748B2, “Oligodendroglial cell culturing methods and in methods for treating neurodegenerative disorders by using thyroid hormones or analogues” (NeuOrphan Pty Ltd, priority 2014, dated 2020)

Key:
[1] = system: Nkx2.1-GFP+ sorted cells at stage VI; test: qRT-PCR gene expression in Nkx2.1-GFP+ sorted cells at stage VI treated with T3, DITPA or T3+DITPA; assay type: cell-based, human
Method: RNA was isolated from cells by using RNeasy Mini Kit (Qiagen) according to the manufacturer's instruction and treated with DNase-I to remove genomic DNA. The concentrations of total RNA were measured by Nanodrop ND-1000 spectrophotometer v3.7 (Thermo Specific) and complementary DNA (cDNA) was synthesized from 1 μg of total RNA using High-Capacity cDNA Reverse Transcription Kit (Applied Biosystems) according to the manufacturer's instructions. Real-Time Quantitative Reverse Transcription Polymerase Chain Reaction (qRT-PCR) was performed with 5-20 ng of cDNA template, 2× Taqman Gene expression master mix and 20× Taqman probes (Life technologies) on ABI Prism 7900HT Sequence detection system (Applied Biosystems). Gapdh served as an endogenous standard control. The qRT-PCR thermo-cycling reaction was 1 cycle at 50° C. for 2 minutes, 1 cycle at 95° C. for 10 minutes and 40 cycles of 95° C. for 15 seconds, then 60° C. for 1 minute. The threshold cycle (CT) value, which represents the cycle at which the first PCR product is detected, was measured in triplicate and normalized against the endogenous control, GAPDH, to determine the ΔCT value. Then the ΔCT values of GFP-positive cells were then standardized against the ΔCT values of undifferentiated hESCs, derived as relative mRNA expression (ΔΔCT).
Bar graphs illustrating the qRT-PCR analyses in FIG. 2, 3, S1-3 representing the log2 of the average fold-change in gene expression compared directly to the undifferentiated Stage I hESC or T3-treated cells at day 7 in FIG. 5 and S5.

[2] = system: rat retinal ganglion cells (RGCs) and Nkx2.1-GFP+ sorted OPCs; test: Co-culture and myelination assay with rat RGC and hESC-derived OPCs; assay type: cell-based, rat; human
Excerpt: Retinae were dissected from P6 Sprague-Dawley rat pups (AEC #1121/2011/M). RGCs were purified according to the published immunopanning protocol (Deliyanti and Wilkinson-Berka, 2015; Watkins et al., 2008). Details of the RGC preparation are described in Supplemental Experimental Procedure. The RGC growth medium was changed every third day and cultures were maintained for 9 days. Pre-OLs from Nkx2.1-GFP+ cells at stage VI day 10, were FACS sorted according to O4 antibody labeling. O4+ sorted cells were then co-cultured with RGCs at a density of 20,000/well under 3 different conditions: T3 with 0.01% ethanol, 10 ng/mL DITPA, and 40 ng/mL T3 with DITPA in myelination medium (see Supplemental Experimental Procedure). The medium was changed every 3 days and all co-cultures were fixed after 7 days, followed by immunocytochemistry. Cells were stained with a monoclonal rat anti-mCherry (Life Technologies, M11217, 1:1,000); monoclonal mouse anti-NF-200 (Sigma-Aldrich, N0142, 1:200); and polyclonal rabbit anti-MBP (Millipore, AB980, 1:200). Followed by incubation of appropriate Alexa Fluor-labeled secondary antibodies (Life technologies).
In RGC-OPC co-cultures, myelin segments were counted manually. 10 fields (×20 objective) were randomly selected and captured from each coverslip with a confocal microscope (Nikon A1 inverted). For representative images, 10 z-stack images (0.25 μm intervals) were captured, analysed and processed for 3D volume rendering by Imaris version 7.6.4. OLs were scored according to their morphology and defined as either “resting” (processes not touching axons); “contacting” (processes touching axons but not wrapping); and “ensheathing” (processes aligned with and wrapping axons). A myelination index (i.e. axons myelinated) was calculated by: the number of MBP+ membrane, ensheathing the NF200+ axons/the total number of NF200+ axons.
The dissected retinae were digested using papain dissociation system according to the manufacturer's protocol (Worthington). […]

slc16a2-/- zebrafish = details: cited from earlier work
[3] = compared to T3 treated cultures
[4] = differentiating cultures treated with DITPA

## O=C(O)CCc1cc(I)c(Oc2ccc(O)cc2)c(I)c1 [DITPA, 3,5-Diiodothyropropionic acid]
[1]; [3]
  cdkn1b (p27) expression: up-regulated
  tp53 (p53) expression: up-regulated
[1]; compared with T3
  OL differentiation: promotes OL differentiation
[1]; compared with T3 treatment
  dio2 expression: no significant differences
  dio3 expression: no significant differences
  thrb expression: no significant differences
[1]; day 7, compared with T3
  slc16a2 (MCT8) expression: significant up-regulation
  slc16a10 (MCT10) expression: significant up-regulation
[1]; day 21 of treatment, versus T3 alone
  plp1 expression: substantial up-regulation
[1]; [4]
  mbp expression: up-regulation
  myt1 expression: up-regulation
  plp1 expression: up-regulation
[1]; following DITPA treatment
  olig1 expression: up-regulated
  olig2 expression: up-regulated
  sox10 expression: up-regulated
  up-regulation of slc16a10: ~14 fold
[1]; upon DITPA treatment
  bmp7 expression: down-regulation
  frzb expression (WNT antagonist): up-regulation
  jun expression: down-regulation
  sfrp1 expression (WNT antagonist): up-regulation
  sfrp2 expression (WNT antagonist): up-regulation
  tgfb3 expression: down-regulation
  tnfrsf2 (encodes DR6) expression: almost negligible up-regulation
  wnt5a expression: down-regulation
[2]; 7 days co-culture, 10 ng/mL DITPA, compared with T3 alone
  percentage of myelination (number of myelinated axons/total number of axons): significantly enhanced
[2]; 7 days co-culture, 10 ng/mL DITPA, versus T3 alone
  contacting or ensheathing MBP+ OLs: more
[2]; FIG. 6
  myelination of rat retinal ganglion cells: Depicts an experiment which shows that DITPA promotes the myelination of rat
slc16a2-/- zebrafish
  locomotor behavioral outcomes: restored
  myelin deficiencies: restored
